Assay results as given in US20100022527A1, “BIPHENYL SUBSTITUTED SPIROTETRONIC ACIDS AND THEIR USE FOR THE TREATMENT OF RETROVIRAL DISEASES” (priority 2006, published 2010).

What follows are compounds tested against T1, HIV-1 protease wild type protein (Human immunodeficiency virus type 1 group M subtype B, UniProt P04585) (assay: Biochemical protease assay).
T1 construct: HIV-1 protease wild type protein; purchased AscoProt Biotech, Prague, Czech Republic
Description: For the determination of their in vitro activity on HIV proteases the test substances are dissolved in DMSO and serially diluted. In each case 0.5 μl of substance dilution, 20 μl of 0.2-1 nM HIV-1 protease wild type or mutant protein (e.g., multiresistant isolate “35513”: L10I, I15V, L19I, K20R, E35D, M36I, R41K, I54V, L63P, H69K, A71V, T74P, I84V, L89M, L90M, 193L, AscoProt Biotech, Prague, Czech Republic) in buffer 1 (50 mM sodium acetate pH 4.9, 0.02% BSA, 0.1 mM EDTA, 0.5 mM DTT) and 20 μl of 8 μM substrate (M1865 from Bachem, Bubendorf, Switzerland; Matayoshi et al., Science 1990, 247, 954-8) in buffer 1 are added successively to a 384 well microtiter plate (Greiner, Frickenhausen, Germany), incubated for 60-180 minutes at 32° C. and the fluorescence is measured (e.g., Tecan Safire, 340 nm extinction, 520 nm emission). IC50 values are determined by graphical plotting the substance concentration against the percentage inhibition.
`CCOC1CCCCC12OC(=O)C(c1cc(Cl)c(-c3cccc(S(C)(=O)=O)c3)cc1C)=C2O` (single isomer, unassigned) [Example 75] gave an IC50 of no more than 100 nM.
With `CCOC1CCCCC12OC(=O)C(c1cc(Cl)c(-c3ccccc3)cc1C)=C2O` (single isomer, unassigned) [Example 77] the IC50 was no more than 100 nM.
`CCOC1CCCCC12OC(=O)C(c1cc(C)c(-c3ccc(Cl)cc3)cc1Cl)=C2O` (single isomer, unassigned) [Example 82] was tested, and the IC50 was no more than 100 nM.
Work on `Cc1cc(-c2cccc(S(C)(=O)=O)c2)c(Cl)cc1C1=C(O)C2(CCCN(CC(=O)NCc3ccccc3)C2)OC1=O` (single isomer, unassigned) [Example 164] yielded an IC50 of no more than 100 nM.
`Cc1cc(-c2ccc(Cl)cc2)c(C)cc1C1=C(O)C2(CCC(C)C(C)C2)OC1=O` (stereo not drawn) [Example 9] showed an IC50 of no more than 100 nM.
`Cc1cc(-c2ccc(Cl)cc2)c(C)cc1C1=C(O)C2(CCCCCC2)OC1=O` [Example 10] was tested, and the IC50 was no more than 100 nM.
In the case of `Cc1cc(-c2ccc(Cl)cc2)c(C)cc1C1=C(O)C2(CCC(=O)CC2)OC1=O` [Example 11], the IC50 is reported as no more than 100 nM.
Work on `Cc1cc(-c2ccc(Cl)cc2)c(C)cc1C1=C(O)C2(CCC3CCCC3C2)OC1=O` (stereo not drawn) [Example 12] yielded an IC50 of no more than 100 nM.
Compound `Cc1cc(-c2ccc(Cl)cc2)c(C)cc1C1=C(O)C2(CCCCC2OC(C)C)OC1=O` (stereo not drawn) [Example 13] has an IC50 of no more than 100 nM.
Compound `CCOC1CCCCC12OC(=O)C(c1cc(C)c(-c3ccc(Cl)cc3)cc1C)=C2O` (stereo not drawn) [Example 14] has an IC50 of no more than 100 nM.
Compound `COC1CCCCC12OC(=O)C(c1cc(C)c(-c3ccc(Cl)cc3)cc1C)=C2O` (stereo not drawn) [Example 15] has an IC50 of no more than 100 nM.
With `Cc1cc(-c2ccccc2)c(Cl)cc1C1=C(O)C2(CCCCC2)OC1=O` [Example 17, 3-(2-Chloro-5-methylbiphenyl-4-yl)-4-hydroxy-1-oxaspiro[4.5]dec-3-en-2-one] the IC50 was no more than 100 nM.
In the case of `Cc1ccc(-c2cc(C)c(C3=C(O)C4(CCCCC4)OC3=O)cc2Cl)cc1` [Example 22], the IC50 is reported as no more than 100 nM.
`COc1ccc(-c2cc(C)c(C3=C(O)C4(CCCCC4)OC3=O)cc2Cl)cc1` [Example 23] showed an IC50 of no more than 100 nM.
`Cc1cc(-c2ccc3c(c2)OCO3)c(Cl)cc1C1=C(O)C2(CCCCC2)OC1=O` [Example 24] showed an IC50 of no more than 100 nM.
With `Cc1cc(-c2cccc(CO)c2)c(Cl)cc1C1=C(O)C2(CCCCC2)OC1=O` [Example 26] the IC50 was no more than 100 nM.
With `CC(=O)c1cccc(-c2cc(C)c(C3=C(O)C4(CCCCC4)OC3=O)cc2Cl)c1` [Example 27] the IC50 was no more than 100 nM.
`Cc1cc(-c2ccc(C(=O)O)cc2)c(Cl)cc1C1=C(O)C2(CCCCC2)OC1=O` [Example 30] showed an IC50 of no more than 100 nM.
With `Cc1cc(-c2cccc(Cl)c2)c(Cl)cc1C1=C(O)C2(CCCCC2)OC1=O` [Example 31] the IC50 was no more than 100 nM.
Compound `COc1cccc(-c2cc(C)c(C3=C(O)C4(CCCCC4)OC3=O)cc2Cl)c1` [Example 32] has an IC50 of no more than 100 nM.
`Cc1cc(-c2cccc(C)c2C)c(Cl)cc1C1=C(O)C2(CCCCC2)OC1=O` [Example 33] gave an IC50 of no more than 100 nM.
`Cc1cc(-c2cc(C)c(C3=C(O)C4(CCCCC4)OC3=O)cc2Cl)ccc1F` [Example 34] gave an IC50 of no more than 100 nM.
In the case of `Cc1cc(-c2ccc(OC(F)(F)F)cc2)c(Cl)cc1C1=C(O)C2(CCCCC2)OC1=O` [Example 35], the IC50 is reported as no more than 100 nM.
In the case of `Cc1cc(-c2cccc(S(C)(=O)=O)c2)c(Cl)cc1C1=C(O)C2(CCCCC2)OC1=O` [Example 36], the IC50 is reported as no more than 100 nM.
For `Cc1cc(-c2cccc(C#N)c2)c(Cl)cc1C1=C(O)C2(CCCCC2)OC1=O` [Example 37], the IC50 was no more than 100 nM.
With `Cc1cc(-c2cccc(OC(F)(F)F)c2)c(Cl)cc1C1=C(O)C2(CCCCC2)OC1=O` [Example 38] the IC50 was no more than 100 nM.
For `Cc1cc(-c2cccc([N+](=O)[O-])c2)c(Cl)cc1C1=C(O)C2(CCCCC2)OC1=O` [Example 40], the IC50 was no more than 100 nM.
Compound `Cc1cc(-c2cccc(C(N)=O)c2)c(Cl)cc1C1=C(O)C2(CCCCC2)OC1=O` [Example 41] has an IC50 of no more than 100 nM.
For `CCS(=O)(=O)c1ccc(-c2cc(C)c(C3=C(O)C4(CCCCC4)OC3=O)cc2Cl)cc1` [Example 42], the IC50 was no more than 100 nM.
`Cc1cc(-c2ccc(NC(=O)OC(C)(C)C)cc2)c(Cl)cc1C1=C(O)C2(CCCCC2)OC1=O` [Example 43] was tested, and the IC50 was no more than 100 nM.
`Cc1cc(-c2ccc(NC(=O)C(C)(C)C)cc2)c(Cl)cc1C1=C(O)C2(CCCCC2)OC1=O` [Example 44] was tested, and the IC50 was no more than 100 nM.
Compound `Cc1cc(-c2ccc([N+](=O)[O-])cc2)c(Cl)cc1C1=C(O)C2(CCCCC2)OC1=O` [Example 47, 3-(2-chloro-5-methyl-4′-nitrobiphenyl-4-yl)-4-hydroxy-1-oxaspiro[4.5]dec-3-en-2-one] has an IC50 of no more than 100 nM.
`Cc1cc(-c2ccc(F)c([N+](=O)[O-])c2)c(Cl)cc1C1=C(O)C2(CCCCC2)OC1=O` [Example 48] was tested, and the IC50 was no more than 100 nM.
`Cc1cc(-c2ccc(C(=O)NC3CC3)cc2)c(Cl)cc1C1=C(O)C2(CCCCC2)OC1=O` [Example 49] gave an IC50 of no more than 100 nM.
`Cc1cc(-c2cccc(C(=O)NC3CC3)c2)c(Cl)cc1C1=C(O)C2(CCCCC2)OC1=O` [Example 50] was tested, and the IC50 was no more than 100 nM.
With `Cc1cc(-c2cccc(C(=O)NCCC#N)c2)c(Cl)cc1C1=C(O)C2(CCCCC2)OC1=O` [Example 51] the IC50 was no more than 100 nM.
With `Cc1cc(-c2ccc(C(=O)NCC(=O)O)cc2)c(Cl)cc1C1=C(O)C2(CCCCC2)OC1=O` [Example 52] the IC50 was no more than 100 nM.
Work on `COC1CCC2(CC1)OC(=O)C(c1cc(Cl)c(-c3ccccc3)cc1C)=C2O` (stereo not drawn) [Example 53] yielded an IC50 of no more than 100 nM.
Work on `COC1CCC2(CC1)OC(=O)C(c1cc(Cl)c(-c3ccc(F)cc3)cc1C)=C2O` (stereo not drawn) [Example 54] yielded an IC50 of no more than 100 nM.
For `CCOc1ccccc1-c1cc(C)c(C2=C(O)C3(CCC(OC)CC3)OC2=O)cc1Cl` (stereo not drawn) [Example 55], the IC50 was no more than 100 nM.
With `COC1CCC2(CC1)OC(=O)C(c1cc(C)c(-c3cccc(C#N)c3)cc1C)=C2O` (stereo not drawn) [Example 56] the IC50 was no more than 100 nM.
For `COC1CCC2(CC1)OC(=O)C(c1cc(C)c(-c3cccc(C(F)(F)F)c3)cc1C)=C2O` (stereo not drawn) [Example 57], the IC50 was no more than 100 nM.
Compound `COC1CCC2(CC1)OC(=O)C(c1cc(C)c(-c3ccc(Cl)cc3)cc1C)=C2O` (stereo not drawn) [Example 58] has an IC50 of no more than 100 nM.
Compound `Cc1cc(-c2ccccc2)ccc1C1=C(O)C2(CCCCC2)OC1=O` [Example 59] has an IC50 of no more than 100 nM.
With `COc1cccc(-c2ccc(C3=C(O)C4(CCCCC4)OC3=O)c(C)c2)c1` [Example 60] the IC50 was no more than 100 nM.
`Cc1cc(-c2ccc(Cl)cc2)ccc1C1=C(O)C2(CCCCC2)OC1=O` [Example 61] gave an IC50 of no more than 100 nM.
`COc1ccc(-c2ccc(C3=C(O)C4(CCCCC4)OC3=O)c(C)c2)cc1` [Example 62] gave an IC50 of no more than 100 nM.
`COc1cccc(-c2cc(Cl)c(C3=C(O)C4(CCCCC4)OC3=O)cc2C)c1` [Example 69] showed an IC50 of no more than 100 nM.
With `Cc1cc(C2=C(O)C3(CCCCC3)OC2=O)c(Cl)cc1-c1ccc(Cl)cc1` [Example 70] the IC50 was no more than 100 nM.
`Cc1cc(C2=C(O)C3(CCCCC3)OC2=O)c(Cl)cc1-c1cccc(S(C)(=O)=O)c1` [Example 71] was tested, and the IC50 was no more than 100 nM.
Compound `Cc1cc(-c2cccc(S(C)(=O)=O)c2)c(Cl)cc1C1=C(O)C2(CCN(C(=O)OCc3ccccc3)CC2)OC1=O` [Example 72, benzyl 3-[2-chloro-5-methyl-3′-(methylsulfonyl)biphenyl-4-yl]-4-hydroxy-2-oxo-1-oxa-8-azaspiro[4.5]dec-3-ene-8-carboxylate] has an IC50 of no more than 100 nM.
Work on `Cc1cc(-c2cccc(S(C)(=O)=O)c2)c(Cl)cc1C1=C(O)C2(CCC3CCCC3C2)OC1=O` (stereo not drawn) [Example 84] yielded an IC50 of no more than 100 nM.
With `Cc1cc(-c2cccc([N+](=O)[O-])c2)c(Cl)cc1C1=C(O)C2(CCC3CCCC3C2)OC1=O` (stereo not drawn) [Example 88] the IC50 was no more than 100 nM.
In the case of `Cc1cc(-c2ccc([N+](=O)[O-])cc2)c(Cl)cc1C1=C(O)C2(CCC3CCCC3C2)OC1=O` (stereo not drawn) [Example 89], the IC50 is reported as no more than 100 nM.
`Cc1cc(-c2cccc(NS(C)(=O)=O)c2)c(Cl)cc1C1=C(O)C2(CCN(C(=O)OCc3ccccc3)CC2)OC1=O` [Example 91] gave an IC50 of no more than 100 nM.
Compound `Cc1cc(-c2cc(NS(C)(=O)=O)ccc2F)c(Cl)cc1C1=C(O)C2(CCCCC2)OC1=O` [Example 92] has an IC50 of no more than 100 nM.
`CCOc1cc(-c2cccc(S(C)(=O)=O)c2)c(C)cc1C1=C(O)C2(CCCCC2)OC1=O` [Example 93] was tested, and the IC50 was no more than 100 nM.
`Cc1cc(-c2cccc(NS(C)(=O)=O)c2)c(Cl)cc1C1=C(O)C2(CCCN(CC(=O)NCc3ccccc3)C2)OC1=O` (stereo not drawn) [Example 97] gave an IC50 of no more than 100 nM.
`Cc1cc(-c2cccc(S(C)(=O)=O)c2)c(Cl)cc1C1=C(O)C2(CCCN(Cc3nc4ccccc4[nH]3)C2)OC1=O` (stereo not drawn) [Example 99] gave an IC50 of no more than 100 nM.
Work on `Cc1cc(-c2cccc(S(C)(=O)=O)c2)c(Cl)cc1C1=C(O)C2(CCCN(C(=O)CCOc3ccccc3)C2)OC1=O` (stereo not drawn) [Example 100] yielded an IC50 of no more than 100 nM.
Work on `Cc1cc(-c2cccc(S(C)(=O)=O)c2)c(Cl)cc1C1=C(O)C2(CCCN(CC(=O)NC(C)C)C2)OC1=O` (stereo not drawn) [Example 101] yielded an IC50 of no more than 100 nM.
In the case of `Cc1cc(-c2cccc(S(C)(=O)=O)c2)c(Cl)cc1C1=C(O)C2(CCCN(C(C)C3=NOCCO3)C2)OC1=O` (stereo not drawn) [Example 102], the IC50 is reported as no more than 100 nM.
Compound `CC(=O)N1CCCC2(C1)OC(=O)C(c1cc(Cl)c(-c3cccc(S(C)(=O)=O)c3)cc1C)=C2O` (stereo not drawn) [Example 104] has an IC50 of no more than 100 nM.
`Cc1cc(-c2cccc(S(C)(=O)=O)c2)c(Cl)cc1C1=C(O)C2(CCCN(C(=O)N3CCOCC3)C2)OC1=O` (stereo not drawn) [Example 106] was tested, and the IC50 was no more than 100 nM.
With `Cc1cc(-c2cccc(S(C)(=O)=O)c2)c(Cl)cc1C1=C(O)C2(CCCN(C(=O)CCC(=O)c3ccccn3)C2)OC1=O` (stereo not drawn) [Example 108] the IC50 was no more than 100 nM.
`Cc1cc(-c2cccc(S(C)(=O)=O)c2)c(Cl)cc1C1=C(O)C2(CCN(C(=O)CCc3ccc(S(C)(=O)=O)cc3)CC2)OC1=O` [Example 109] was tested, and the IC50 was no more than 100 nM.
